Assay results as given in patent US5567710A, “Polycyclic fused ring modulators of acetylcholine receptors” (SIBIA Neurosciences, Inc., priority 1994, dated 1996).
Read-outs that look alike come from different tables or passages of the source.

Experiments:
[1] = target: acetylcholine receptor (rat cerebral membranes); format: binding; details: 3H-QNB displacement
[2] = target: T1, acetylcholine receptor (rat cerebral membranes) (Rattus norvegicus, UniProt P09483+P12390); test: 3H-cyt (cytisine) displacement from rat cerebral membranes; format: binding; details: 3H-cyt displacement
T1 construct: Synaptic membranes were prepared by homogenizing the cortical tissue; from tissue; host or cells: cerebral cortex synaptic membranes of male Sprague-Dawley rats
T1 sequence (P09483 31-630): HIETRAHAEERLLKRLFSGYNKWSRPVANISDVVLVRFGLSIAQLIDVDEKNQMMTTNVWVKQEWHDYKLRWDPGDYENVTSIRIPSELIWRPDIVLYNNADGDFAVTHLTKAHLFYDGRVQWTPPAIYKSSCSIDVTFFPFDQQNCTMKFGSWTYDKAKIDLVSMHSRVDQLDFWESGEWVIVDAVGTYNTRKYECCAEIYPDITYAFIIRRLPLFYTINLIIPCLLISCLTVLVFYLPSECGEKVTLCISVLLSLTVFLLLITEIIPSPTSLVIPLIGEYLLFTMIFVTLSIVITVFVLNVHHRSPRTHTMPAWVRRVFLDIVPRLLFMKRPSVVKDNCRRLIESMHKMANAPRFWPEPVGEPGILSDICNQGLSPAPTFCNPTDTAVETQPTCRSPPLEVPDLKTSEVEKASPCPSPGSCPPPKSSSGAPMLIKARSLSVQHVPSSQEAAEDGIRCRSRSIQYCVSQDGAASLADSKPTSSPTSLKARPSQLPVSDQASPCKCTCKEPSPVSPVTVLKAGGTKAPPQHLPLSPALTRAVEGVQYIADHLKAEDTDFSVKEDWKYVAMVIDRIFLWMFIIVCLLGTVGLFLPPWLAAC
T1 sequence (P12390 25-500): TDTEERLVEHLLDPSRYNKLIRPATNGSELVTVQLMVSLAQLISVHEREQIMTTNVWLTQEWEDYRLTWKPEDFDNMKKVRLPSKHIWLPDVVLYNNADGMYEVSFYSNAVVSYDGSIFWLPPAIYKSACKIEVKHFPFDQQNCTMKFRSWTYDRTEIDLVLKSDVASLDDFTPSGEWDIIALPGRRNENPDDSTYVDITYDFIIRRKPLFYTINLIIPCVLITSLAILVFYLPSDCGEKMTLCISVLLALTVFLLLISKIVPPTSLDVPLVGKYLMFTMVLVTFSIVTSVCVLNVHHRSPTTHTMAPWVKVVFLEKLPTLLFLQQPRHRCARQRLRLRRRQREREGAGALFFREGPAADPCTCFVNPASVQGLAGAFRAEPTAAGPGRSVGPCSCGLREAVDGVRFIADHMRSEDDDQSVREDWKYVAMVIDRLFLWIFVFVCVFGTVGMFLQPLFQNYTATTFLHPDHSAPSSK

[3] = target: T1, acetylcholine receptor (rat cerebral membranes); test: 3H-nicotine displacement from rat cerebral membranes; format: binding; details: 3H-nicotine (1.9 nM) displacement, atropine 3 μM
[4] = target: T1, acetylcholine receptor (rat cerebral membranes); test: 3H-MCC (methylcarbamylcholine) displacement from rat cerebral membranes; format: binding; details: 3H-MCC displacement
rat striatal slices = format: cell-based
Method: (§1) Measurement of ^3 H-dopamine release from rat striatal slices was performed according to the method of Sacaan et al. (J. Neurochem. 59:245 (1992)). Male Sprague-Dawley rats (250-300 g) were decapitated and the striata dissected quickly on a cold glass surface. The tissue was chopped to a thickness of 300 μm with a McIlwain tissue chopper. After chopping again at right angles the tissue was dispersed and incubated for 10 min. at 37° C. in oxygenated Kreb's buffer. ^3 H-Dopamine (40 Ci/mmol, NEN-Dupont, Boston, Mass.) was added (50 nM) and the tissue was incubated for 30 min. in Kreb's buffer containing 10 μM pargyline and 0.5 mM ascorbic acid. Aliquots of the minced tissue were then transferred to chambers of a Brandel Superfusion system in which the tissue was supported on Whatman GF/B filter discs. The tissue was then superfused with buffer at a constant flow rate of 0.3 ml/min. by means of a Brandel peristaltic pump. The perfusate was collected in plastic scintillation vials in 3-min. fractions, and the radioactivity was estimated by scintillation spectrophotometry. The superfusate for the first 120 min. was discarded. After two baseline fractions had been collected, the superfusion buffer was switched to fresh buffer with or without compound of interest. At the end of the experiment the filter and the tissue were removed, and the ^3 H-dopamine content was estimated after extraction into scintillation fluid. The fractional efflux of tritium was estimated as the amount of radioactivity in the perfusate fraction relative to the total amount in the tissue.
(§2) The results of studies of the effects of an invention compound (as compared to the effect of nicotine and cytisine) on the release of neurotransmitters from rat brain slices are presented in Table II. The results presented in the Table are expressed as the percent fractional release.

rat hippocampus slices = format: cell-based
Method: as §1
(§3) Following essentially the same procedure as set forth in the preceding paragraph, the amount of ^3 H-norepinephrine released from rat hippocampus and thalamus slices superfused with buffer containing (or lacking) compounds of interest was also measured.
as §2

rat thalamus slices = format: cell-based
Method: as §1, §3, §2

[5] = test system: rats with unilateral 6-hydroxydopamine lesions of the nigro-striatal dopamine pathway; format: in vivo, rat
Method: The effects of invention compounds on turning behavior of rats with unilateral 6-hydroxydopamine lesions in the striatum were evaluated using the procedure of Ungerstedt and Arbutknott Brain Res. 24:485-493 (1970). Rats were injected with desmethylimipramine (25 mg/kg i.p.) and pargyline (75 mg/kg i.p.) approximately 30 minutes prior to 6-hydroxydopamine infusion into the substantia nigra. Results reported in the Table are measured as the maximal rotation per 15-min interval toward the lesioned side of the striatum.

[6] = test system: haloperidol-induced catalepsy in rats; test: Haloperidol-induced catalepsy model in rats; format: in vivo, rat; details: s.c.; for Reduction in catalepsy (maximum): haloperidol 2 mg/kg i.p., vs haloperidol alone
tail flick in rats = format: in vivo, rat
Method: The effects of invention compounds on latency in the time between stimulus application and tail flick in rats were evaluated using the procedure of D'Amour and Smith, J. Pharmacol. Exp. Ther. 72:74-79 (1941). Male rats (150-200g; Harlan, San Diego, Calif.) were acclimated to investigator's handling by taking two-to-three tail-flick latencies. The animals were held by hand such that the tail is placed in the groove of the Tail-Flick meter (IITC Life Sciences, Woodland Hill, Calif., Model 33). The light was focused 3-4 cm from the tip of the tail by a foot-operated switch. The intensity of the incident beam was adjusted to give baseline latencies in the range of 1-4 seconds. Groups of 5-6 rates were used in each treatment. The tail-flick latencies were recorded to the nearest 0.1 seconds and a cut-off time of 10 seconds was established to prevent thermal injury. The results of one such study are shown in Table V. Results presented in the Table are expressed as the percent of the maximum latency to remove the tail from the light beam. Maximum latency is 10 seconds.

COc1cc2c(cn1)C1C(CC2)CCN1C (centres unmarked) was tested, and the IC50 [1] was 9 µM, the IC50 [2] was 27.5 µM and the IC50 [3] was 10.7 µM. For the same molecule, the IC50 [4] was 5.5 µM.

With c1cc2c(cn1)C1NCCC1CO2 (centres unmarked) the IC50 [2] was 2 µM, the IC50 [3] was 0.51 µM and the IC50 [4] was 0.61 µM.

COc1cc2c(cn1)C1NCCC1CC2 (centres unmarked) was tested, and the IC50 [1] was 6 µM, the IC50 [2] was 5.4 µM and the IC50 [3] was 1.9 µM. For the same molecule, the IC50 [4] was 0.8 µM, the “3H-dopamine striatum, percent fractional release” value (rat striatal slices; 300 μM) was 2.2% and the “Release of catecholamines from rat brain slices (in words)” value (rat striatal slices; striatum (dopamine), hippocampus and thalamus (norepinephrine)) was “selectively induces release of catecholamines in different brain regions”. The “3H-norepinephrine hippocampus, percent fractional release” value (rat hippocampus slices; 300 μM) was 0.69%, the “3H-norepinephrine thalamus, percent fractional release” value (rat thalamus slices; 300 μM) was 2.2% and the “Range of activity (maximal rotation per 15-min interval toward the lesioned side of the striatum)” value ([5]; 10 mg/kg, s.c.) was 9-50 rotation per 15-min interval. The “Turning towards the 6-hydroxydopamine-lesioned side (in words)” value ([5]; 10 mg/kg, s.c.) was “induces turning towards the 6-hydroxydopamine-lesioned side of the rat striatum”, the “Cataleptogenic effect of haloperidol in rats (in words)” value ([6]; 3 mg/kg) was “reduces the cataleptogenic effect of haloperidol in rats” and the “Reduction in catalepsy (maximum)” value ([6]; 3 mg/kg) was 34%. The Duration of effect (tail flick in rats; 30 mg/kg, p.o.) was > 180 min, the “Latency between application of stimulus and tail-flick response (in words)” value (tail flick in rats; 30 mg/kg, p.o., as compared to nicotine) was “increased the latency period, as compared to nicotine” and the “% maximum possible effect” value (tail flick in rats; 30 mg/kg, p.o., maximum latency 10 seconds) was 52%. The “Duration of effect versus morphine (in words)” value (tail flick in rats; rat, in vivo) was “longer duration than the effect of morphine”.

In the case of CC(N)Cc1ccccc1 (centres unmarked) [AMPHETAMINE, reference compound], the “Range of activity (maximal rotation per 15-min interval toward the lesioned side of the striatum)” value ([5]; 5 mg/kg, s.c.) is reported as 50-200 rotation per 15-min interval.

O=c1cccc2n1C[C@@H]1CNC[C@H]2C1 [CYTISINE, cytisine] was tested, and the “3H-dopamine striatum, percent fractional release” value (rat striatal slices; 100 μM) was 0.96%, the “3H-norepinephrine hippocampus, percent fractional release” value (rat hippocampus slices; 100 μM) was 4.3% and the “3H-norepinephrine thalamus, percent fractional release” value (rat thalamus slices; 100 μM) was 2.9%.

For CN1CC[C@]23c4c5ccc(O)c4O[C@H]2[C@@H](O)C=C[C@H]3[C@H]1C5 [Morphine, reference compound], the “% maximum possible effect” value (tail flick in rats; 2 mg/kg, s.c., maximum latency 10 seconds) was 100%.

For CN1CCCC1c1cccnc1 (centres unmarked) [NICOTINE, nicotine, reference compound], the “3H-dopamine striatum, percent fractional release” value (rat striatal slices) was 1.80, the “3H-norepinephrine hippocampus, percent fractional release” value (rat hippocampus slices) was 4.1 and the “3H-norepinephrine thalamus, percent fractional release” value (rat thalamus slices) was 2.9. For the same molecule, the “Range of activity (maximal rotation per 15-min interval toward the lesioned side of the striatum)” value ([5]; rat, in vivo) was 6-50, the “Reduction in catalepsy (maximum)” value ([6]; 2 mg/kg) was 21% and the “% maximum possible effect” value (tail flick in rats; rat, in vivo) was 38%. It also gave a Duration of effect (tail flick in rats; rat, in vivo) of 60 min.
